The record followed here is US20230346820A1, “METHODS AND COMPOSITIONS FOR THE TREATMENT OF SARS-COV-2” (priority 2020, published 2023).

Where a name gives a salt, the structure may show the parent alone. Residues, ends and D or L forms follow the SMILES beside them. *: point of attachment. Cbz = O=C(OCc1ccccc1)*; CHN2 = [N-]=[N+]=C* Bounds are passed on as bounds.

The first data set relates to SARS-CoV-2.
Assay: not given
Conditions: not given
Regarding `Nc1ncnc2c1nc(Cl)n2[C@@H]1O[C@H](CO)[C@@H](O)[C@H]1O` [8-Chloroadenosine], the “HeLa-ACE2 CC50/CoV-2 EC50” value is on record as greater than 12.80.

For the compound `Cc1cccc(/C=N/Nc2cc(N3CCOCC3)n3nc(-c4ccncc4)cc3n2)c1` [APY0201], the “HeLa-ACE2 CC50/CoV-2 EC50” value was greater than 2853.95.

In the case of `CCN(CC)Cc1cc(Nc2ccnc3cc(Cl)ccc23)ccc1O` [Amodioaquine], the “HeLa-ACE2 CC50/CoV-2 EC50” value was greater than 33.48.

With `CN1[C@@H]2CC[C@H]1C[C@@H](N1Cc3ccc4ccccc4c3C1=O)C2` [CR-3124], the “HeLa-ACE2 CC50/CoV-2 EC50” value is greater than 6.67.

Take `COc1ccc2cc1Oc1ccc(cc1)C[C@H]1c3c(cc4c(c3Oc3cc5c(cc3OC)CCN(C)[C@@H]5C2)OCO4)CCN1C` [Cepharanthine]: the “HeLa-ACE2 CC50/CoV-2 EC50” value is greater than 25.76.

For the compound `CCCCCCOC(=O)NC(=N)c1ccc(NCc2nc3cc(C(=O)N(CCC(=O)OCC)c4ccccn4)ccc3n2C)cc1` [Dabigatranetexilate mesilate], the “HeLa-ACE2 CC50/CoV-2 EC50” value is recorded as greater than 6.50.

On to `CN(C)CC1=C[CH]([Fe][CH]2C=CC=C2)C=C1CNc1ccnc2cc(Cl)ccc12` (stereo not drawn) [Ferroquine], for which the “HeLa-ACE2 CC50/CoV-2 EC50” value is listed as 10.29.

Regarding `COC(CNCC(C)C)COc1c(C)csc1C(=O)CCc1ccccc1` (stereo not drawn) [LG-6-101], the “HeLa-ACE2 CC50/CoV-2 EC50” value is listed as 10.3.

In the case of `O=C(CCCN1CCN(c2ccc(F)cc2)CC1)NC1c2ccccc2CSc2ccccc21` (stereo not drawn) [MONATEPIL], the “HeLa-ACE2 CC50/CoV-2 EC50” value was greater than 5.01.

On to `CCCCN1CC[C@H](c2ccc(N(C)C)cc2)[C@@H](COc2ccc(C(F)(F)F)cc2)C1` [NNC 090026], for which the “HeLa-ACE2 CC50/CoV-2 EC50” value is reported as greater than 5.59.

Regarding `N#Cc1ccc2c(c1)[C@H]1CN(CCCCNC(=O)c3ccc(-c4ccccc4)cc3)C[C@@H]1CO2` [S-33084], the “HeLa-ACE2 CC50/CoV-2 EC50” value is reported as greater than 6.34.

Take `CNC(=O)c1cc(Oc2ccc(NC(=O)Nc3ccc(Cl)c(C(F)(F)F)c3)cc2)ccn1` [Sorafenib]: the “HeLa-ACE2 CC50/CoV-2 EC50” value is given as greater than 1.52.

In the case of `CC(C)CC(NC(=O)OCc1ccccc1)C(=O)NC(C(=O)NCC(=O)C=[N+]=[N-])C(C)C` (stereo not drawn) [Z LVG CHN2] (Cbz-Leu-Val-Gly-CHN2; configuration not given here), the “HeLa-ACE2 CC50/CoV-2 EC50” value is greater than 554.29.

On to `OC(CNCC(O)C1CCc2cc(F)ccc2O1)C1CCc2cc(F)ccc2O1` (stereo not drawn) [nebivolol hydrochloride], for which the “HeLa-ACE2 CC50/CoV-2 EC50” value is reported as greater than 3.75.

The data set is the same for the next values; noted with them: read-out: HeLa-ACE2 CoV-2 EC50; Table 4; aggregated data, Geomean, n = 3.
As usually defined, the EC50 is the concentration giving half of the maximal effect. For `COc1ccc(C[C@H]2NC[C@H](O)[C@H]2OC(C)=O)cc1` [ANISOMYCIN], the EC50 came to 0.066 µM.

The test system of another data set is SARS-CoV-2. Description: microbe, parasite or virus in culture. Particulars: Severe acute respiratory syndrome coronavirus 2, HeLa-ACE2, 24 h, read-out: CoV-2 EC50 [μM] (Geomeans, n ≥ 2).
As to `Nc1ncnc2c1nc(Cl)n2[C@@H]1O[C@H](CO)[C@@H](O)[C@H]1O` [8-Chloroadenosine], the EC50 was found to be 0.927 µM.

Turning to `Cc1cccc(/C=N/Nc2cc(N3CCOCC3)n3nc(-c4ccncc4)cc3n2)c1` [APY0201], the EC50 was 0.014 µM.

For the compound `CCN(CC)Cc1cc(Nc2ccnc3cc(Cl)ccc23)ccc1O` [Amodioaquine], the EC50 worked out at 1.19 µM.

With `COC(CNCC(C)C)COc1c(C)csc1C(=O)CCc1ccccc1` (stereo not drawn) [LG-6-101], the EC50 is 3.46 µM.

On to `O=C(CCCN1CCN(c2ccc(F)cc2)CC1)NC1c2ccccc2CSc2ccccc21` (stereo not drawn) [MONATEPIL], for which the EC50 is greater than 7.79 µM.

With `CCCCN1CC[C@H](c2ccc(N(C)C)cc2)[C@@H](COc2ccc(C(F)(F)F)cc2)C1` [NNC 090026], the EC50 came out at 2.75 µM.

On to `N#Cc1ccc2c(c1)[C@H]1CN(CCCCNC(=O)c3ccc(-c4ccccc4)cc3)C[C@@H]1CO2` [S-33084], for which the EC50 was determined as 3.91 µM.

With `CNC(=O)c1cc(Oc2ccc(NC(=O)Nc3ccc(Cl)c(C(F)(F)F)c3)cc2)ccn1` [Sorafenib], the EC50 was greater than 5.67 µM.

Regarding `CC(C)CC(NC(=O)OCc1ccccc1)C(=O)NC(C(=O)NCC(=O)C=[N+]=[N-])C(C)C` (stereo not drawn) [Z LVG CHN2] (Cbz-Leu-Val-Gly-CHN2; configuration not given here), the EC50 turned out to be 0.072 µM.

Turning to `OC(CNCC(O)C1CCc2cc(F)ccc2O1)C1CCc2cc(F)ccc2O1` (stereo not drawn) [nebivolol hydrochloride], the EC50 amounted to 2.96 µM.

The data set is the same for the next values; noted with them: Severe acute respiratory syndrome coronavirus 2, HeLa-ACE2, read-out: SARS CoV-2 EC50 (μM).
As to `CCCCN1CC[C@H](c2ccc(N(C)C)cc2)[C@@H](COc2ccc(C(F)(F)F)cc2)C1` [NNC 090026], the EC50 amounted to 2.75 µM.

The data set is the same for the next values; noted with them: Severe acute respiratory syndrome coronavirus 2, HeLa-ACE2, read-out: SARS-CoV-2 EC50.
For the compound `Cc1c(-c2ccc(O)cc2)n(Cc2ccc(OCCN3CCCCCC3)cc2)c2ccc(O)cc12` [bazedoxifene], the EC50 stood at 3.47 µM.

Take `O=C(c1ccc(OCCN2CCCCC2)cc1)c1c(-c2ccc(O)cc2)sc2cc(O)ccc12` [raloxifene]: the EC50 was 4.13 µM.

Another data set concerns SARS-CoV-2.
Assay: not given
The settings on record: read-out: Calu-3 CoV-2 EC50; Table 4; aggregated data, Geomean, n = 3; 48 h.
For `COc1ccc(C[C@H]2NC[C@H](O)[C@H]2OC(C)=O)cc1` [ANISOMYCIN], the EC50 is 0.127 µM.

Tested on in the next data set: not listed separately
Description: in vitro. The settings on record: human, CC50 [μM] (Geomeans, n ≥ 2 except where indicated: *n = 1).
Take `CN1C[C@@H]2c3ccccc3Oc3ccc(Cl)cc3[C@H]2C1` (racemic) [Asenapine maleate]: the CC50 was greater than 35.6 µM.

With `Nc1ncnc2c1nc(Cl)n2[C@@H]1O[C@H](CO)[C@@H](O)[C@H]1O` [8-Chloroadenosine], the CC50 was greater than 11.9 µM.

For the compound `Cc1cccc(/C=N/Nc2cc(N3CCOCC3)n3nc(-c4ccncc4)cc3n2)c1` [APY0201], the CC50 is greater than 39.4 µM.

Turning to `CCN(CC)Cc1cc(Nc2ccnc3cc(Cl)ccc23)ccc1O` [Amodioaquine], the CC50 is greater than 39.8 µM.

`CN1[C@@H]2CC[C@H]1C[C@@H](N1Cc3ccc4ccccc4c3C1=O)C2` [CR-3124] showed a CC50 greater than 39.8 µM.

Compound `COc1ccc2cc1Oc1ccc(cc1)C[C@H]1c3c(cc4c(c3Oc3cc5c(cc3OC)CCN(C)[C@@H]5C2)OCO4)CCN1C` [Cepharanthine] registered a CC50 greater than 25.4 µM.

`CCCCCCOC(=O)NC(=N)c1ccc(NCc2nc3cc(C(=O)N(CCC(=O)OCC)c4ccccn4)ccc3n2C)cc1` [Dabigatranetexilate mesilate] returned a CC50 greater than 26.5 µM.

Turning to `CN(C)CC1=C[CH]([Fe][CH]2C=CC=C2)C=C1CNc1ccnc2cc(Cl)ccc12` (stereo not drawn) [Ferroquine], the CC50 turned out to be 13.4 µM.

As for `COC(CNCC(C)C)COc1c(C)csc1C(=O)CCc1ccccc1` (stereo not drawn) [LG-6-101], the CC50 was greater than 35.6 µM.

On to `O=C(CCCN1CCN(c2ccc(F)cc2)CC1)NC1c2ccccc2CSc2ccccc21` (stereo not drawn) [MONATEPIL], for which the CC50 was greater than 39 µM.

`CCCCN1CC[C@H](c2ccc(N(C)C)cc2)[C@@H](COc2ccc(C(F)(F)F)cc2)C1` [NNC 090026] gave a CC50 greater than 15.4 µM.

In turn, `N#Cc1ccc2c(c1)[C@H]1CN(CCCCNC(=O)c3ccc(-c4ccccc4)cc3)C[C@@H]1CO2` [S-33084] gave a CC50 greater than 24.8 µM.

With `CNC(=O)c1cc(Oc2ccc(NC(=O)Nc3ccc(Cl)c(C(F)(F)F)c3)cc2)ccn1` [Sorafenib], the CC50 was greater than 8.65 µM.

The compound `CC(C)CC(NC(=O)OCc1ccccc1)C(=O)NC(C(=O)NCC(=O)C=[N+]=[N-])C(C)C` (stereo not drawn) [Z LVG CHN2] (Cbz-Leu-Val-Gly-CHN2; configuration not given here) yielded a CC50 greater than 39.8 µM.

The compound `OC(CNCC(O)C1CCc2cc(F)ccc2O1)C1CCc2cc(F)ccc2O1` (stereo not drawn) [nebivolol hydrochloride] registered a CC50 greater than 11.1 µM.

The same data set, now with this note: human, Uninfected HeLa-ACE2 CC50 (μM).
The compound `CCCCN1CC[C@H](c2ccc(N(C)C)cc2)[C@@H](COc2ccc(C(F)(F)F)cc2)C1` [NNC 090026] had a CC50 greater than 15.4 µM.
